pIC50: −log10 of the molar value. Read-outs that look alike come from different tables or passages of the source.
Legend:
TDP1 = TDP1 (Homo sapiens (Human), UniProt Q9NUW8); experiment: TDP1 gel-based in vitro fluorescence assay; assay type: biochemical
Protocol: (§1) (TDP assay buffer: 50 mM Tris HCl, pH 7.5, 80 mM KCl, 2 mM EDTA, 1 mM DTT, 40 μg/ml BSA and 0.01% Tween-20. TDP1 (20 mg/mL in 25 mM Tris-HCl pH 7.2, 150 mM NaCl, 2 mM tris(2-carboxyethyl)phosphine) with 2 mL of well solution composed of 0.1 M MOPS/HEPES pH 7.5, 10% (w/v) PEG 8000, 20% (v/v) ethylene glycol, 0.03 M sodium fluoride, 0.03 M sodium bromide, 0.03 M sodium iodide, 0.03 M sodium bromide and sealed over […] well solution. AF647 labelling buffer: Tris-HCl (pH 7.2, 25 mM), NaCl (150 mM), and tris(2-carboxyethyl)phosphine hydrochloride (TCEP, 2 mM).)
(§2) (DNA only: Buffer+DMSO. DMSO only: Enzyme+DMSO. Drug: Enzyme+Drug, 25° C., 10 min+DNA, reaction at 25° C., 15 min.)
Gel images were scanned using a Typhoon FLA 9500 scanner (GE Healthcare) and densitometric analyses were performed using the ImageQuant software (GE Healthcare). The IC50 of TDP1 inhibitors was calculated by comparing the percentage of cleavage product (5′Cy5-[…]-p-3′) to DMSO control.

TDP2 = TDP2 (Homo sapiens (Human), UniProt O95551); experiment: gel-based TDP2 fluorescence assay in vitro; assay type: biochemical; details: read-out: TDP2 IC50
TDP2, sequence (O95551 whole entry, species assumed): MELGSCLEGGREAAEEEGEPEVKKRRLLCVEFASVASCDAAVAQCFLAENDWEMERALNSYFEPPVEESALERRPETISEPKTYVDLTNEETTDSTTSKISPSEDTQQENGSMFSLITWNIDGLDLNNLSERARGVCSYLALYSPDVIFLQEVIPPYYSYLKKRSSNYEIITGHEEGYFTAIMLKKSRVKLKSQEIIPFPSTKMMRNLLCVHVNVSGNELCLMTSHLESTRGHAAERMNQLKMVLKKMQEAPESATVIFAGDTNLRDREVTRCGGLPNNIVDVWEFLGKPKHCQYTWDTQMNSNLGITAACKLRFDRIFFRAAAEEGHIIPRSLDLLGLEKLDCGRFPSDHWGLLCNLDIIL
Protocol: as §1, §2

[1] = Table 1, imidazo[1,2-a]pyridin-3-amines, read-out: IC50
[2] = Table 2, imidazo[1,2-a]pyrazin-3-amine core, read-out: IC50
[3] = Table 10, PROTACs, read-out: TDP1 IC50

TDP1, sequence (Q9NUW8 whole entry): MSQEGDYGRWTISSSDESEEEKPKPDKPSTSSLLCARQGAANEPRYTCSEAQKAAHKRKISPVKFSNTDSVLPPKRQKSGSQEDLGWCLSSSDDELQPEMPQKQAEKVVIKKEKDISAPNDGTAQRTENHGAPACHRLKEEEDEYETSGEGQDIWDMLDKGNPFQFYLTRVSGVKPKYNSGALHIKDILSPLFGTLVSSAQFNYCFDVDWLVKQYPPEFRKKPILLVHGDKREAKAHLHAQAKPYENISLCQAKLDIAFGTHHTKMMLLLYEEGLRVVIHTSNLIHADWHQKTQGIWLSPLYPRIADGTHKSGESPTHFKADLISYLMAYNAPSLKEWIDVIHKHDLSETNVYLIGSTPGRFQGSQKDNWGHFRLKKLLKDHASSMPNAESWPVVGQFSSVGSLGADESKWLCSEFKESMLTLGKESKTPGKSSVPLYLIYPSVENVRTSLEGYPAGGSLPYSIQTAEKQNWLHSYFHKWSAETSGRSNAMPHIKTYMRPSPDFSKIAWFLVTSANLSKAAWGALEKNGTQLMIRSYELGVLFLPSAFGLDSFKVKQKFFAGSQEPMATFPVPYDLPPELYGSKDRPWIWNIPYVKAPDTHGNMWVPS

| Compound | pIC50 (TDP1; [1]) | pIC50 (TDP1; [2]) | also measured |
| --- | --- | --- | --- |
| c1ccc(Nc2c(-c3ccccc3)nc3ccccn23)cc1 [Compound 6t, N,2-Diphenylimidazo[1,2-a]pyridin-3-amine] | < 4.00 |  |  |
| CCOC(=O)c1ccc(Nc2c(-c3ccccc3O)nc3cnccn23)cc1 [Compound 7a] |  | < 3.00 |  |
| COc1ccc(-c2nc3cnccn3c2Nc2ccc(C(N)=O)cc2)cc1 [Compound 7c] |  | < 3.00 |  |
| O=C(O)c1ccc(Nc2c(-c3cccc(O)c3)nc3cnccn23)cc1 [Compound 7d] |  | 3.90 |  |
| O=C(O)c1ccc(Nc2c(-c3ccc(O)cc3)nc3cnccn23)cc1 [Compound 7e] |  | 4.70 |  |
| O=C(O)c1ccc(Nc2c(-c3ccccc3)nc3cnccn23)c(O)c1 [Compound 7f] |  | 4.74 |  |
| COc1ccccc1Nc1c(-c2ccc(C(=O)O)cc2)nc2cnccn12 [Compound 7g] |  | 2.64 |  |
| Cc1ccc(-c2nc3cnccn3c2Nc2ccc(C(N)=O)cc2)cc1 [Compound 7h] |  | < 3.00 |  |
| CNC(=O)c1ccc(Nc2c(-c3ccccc3)nc3cnccn23)cc1 [Compound 7i] |  | < 3.00 |  |
| COC(=O)c1cccc(Nc2c(-c3ccccc3O)nc3cnccn23)c1 [Compound 7j] |  | < 3.00 |  |
| COC(=O)c1ccccc1Nc1c(-c2ccccc2O)nc2cnccn12 [Compound 7k] |  | < 3.00 |  |
| O=C(O)c1cccc(Nc2c(-c3ccccc3O)nc3cnccn23)c1 [Compound 7m] |  | 3.43 |  |
| O=C(O)c1cccc(Nc2c(-c3cccc(O)c3)nc3cnccn23)c1 [Compound 7n] |  | 2.69 |  |
| O=C(O)c1cccc(Nc2c(-c3ccc(O)cc3)nc3cnccn23)c1 [Compound 7o] |  | 3.67 |  |
| O=C(O)c1cccc(Nc2c(-c3ccc(N4CCOCC4)cc3)nc3cnccn23)c1 [Compound 7p] |  | 3.03 |  |
| CN(C)c1ccc(-c2nc3cnccn3c2Nc2cccc(C(=O)O)c2)cc1 [Compound 7q] |  | 2.54 |  |
| CCOC(=O)c1cccc(Nc2c(-c3ccc(C(=O)O)cc3)nc3cnccn23)c1 [Compound 7r, 4-(3-((3-(ethoxycarbonyl)phenyl)amino)imidazo[1,2-a]pyrazin-2-yl)benzoic acid] |  | < 3.00 |  |
| CN(C)c1ccc(-c2nc3cnccn3c2Nc2ccc(C(=O)O)cc2)cc1 [Compound 7v] |  | < 3.00 |  |
| O=C(O)c1ccc(Nc2c(-c3ccc(Cl)cc3)nc3cnccn23)cc1 [Compound 7w] |  | < 3.00 |  |
| O=C(O)c1ccc(Nc2c(-c3cccc(Cl)c3)nc3cnccn23)cc1 [Compound 7x] |  | < 3.00 |  |
| O=C(O)c1ccc(Nc2c(-c3cccc(Br)c3)nc3cnccn23)cc1 [Compound 7y] |  | < 3.00 |  |

| Compound | pIC50 (TDP1; [1]) | pIC50 (TDP1; [2]) | also measured |
| --- | --- | --- | --- |
| O=C(O)c1ccccc1Nc1c(-c2ccccc2O)nc2cnccn12 [Compound 7′s, 2-((2-(2-Hydroxyphenyl)imidazo[1,2-a]pyrazin-3-yl)amino)benzoic acid] |  | < 3.00 |  |
| O=C(O)c1ccc(-c2nc3cnccn3c2Nc2cccc(C(=O)O)c2)cc1 [Compound 7′t, 3-((2-(4-Carboxyphenyl)imidazo[1,2-a]pyrazin-3-yl)amino)benzoic acid] |  | < 3.00 |  |
| O=C(O)c1ccc(Nc2c(-c3ccc(F)cc3)nc3cnccn23)cc1 [Compound 7′z, 4-((2-(4-Fluorophenyl)imidazo[1,2-a]pyrazin-3-yl)amino)benzoic acid] |  | < 3.00 |  |
| Cc1ccc(-c2nc3ccccn3c2Nc2ccc(C(=O)O)cc2)cc1 [Compound 8b, 4-((2-(p-Tolyl)imidazo[1,2-a]pyridin-3-yl)amino)benzoic acid] | 4.83 |  |  |
| O=C(O)c1ccc(Nc2c(-c3ccc(OCc4ccccc4)cc3)nc3ccccn23)cc1 [Compound 8c, 4-((2-(4-(Benzyloxy)phenyl)imidazo[1,2-a]pyridin-3-yl)amino)benzoic acid] | 4.90 |  |  |
| O=C(O)c1ccc(Nc2c(-c3ccc(C(F)(F)F)cc3)nc3ccccn23)cc1 [Compound 8d, 4-((2-(4-(Trifluoromethyl)phenyl)imidazo[1,2-a]pyridin-3-yl)amino)benzoic acid] | 5.38 |  |  |
| O=C(O)c1ccc(Nc2c(-c3ccc([N+](=O)[O-])cc3)nc3ccccn23)cc1 [Compound 8e, 4-((2-(4-Nitrophenyl)imidazo[1,2-a]pyridin-3-yl)amino)benzoic acid] | 5.49 |  |  |
| O=C(O)c1ccc(Nc2c(-c3ccc(O)cc3)nc3ccccn23)cc1 [Compound 8f, 4-((2-(4-Hydroxyphenyl)imidazo[1,2-a]pyridin-3-yl)amino)benzoic acid] | < 4.00 |  |  |
| O=C(O)c1ccc(Nc2c(-c3ccc(S(=O)(=O)O)cc3)nc3ccccn23)cc1 [Compound 8g, 4-((2-(4-Sulfophenyl)imidazo[1,2-a]pyridin-3-yl)amino)benzoic acid] | < 4.00 |  |  |
| O=C(O)c1ccc(Nc2c(-c3ccc(C(=O)O)cc3)nc3ccccn23)cc1 [Compound 8h, 4-(3-((4-Carboxyphenyl)amino)imidazo[1,2-a]pyridin-2-yl)benzoic acid] | < 4.00 |  |  |
| O=C(O)c1ccc(-c2nc3ccccn3c2Nc2ccccc2)cc1 [Compound 8i, 4-(3-(Phenylamino)imidazo[1,2-a]pyridin-2-yl)benzoic acid] | 4.40 |  |  |
| O=C(O)c1ccc(Nc2c(-c3ccccc3C(=O)O)nc3ccc(C(=O)O)cn23)cc1 [Compound 8j, 2-(2-Carboxyphenyl)-3-((4-carboxyphenyl)amino)imidazo[1,2-a]pyridine-6-carboxylic acid] | < 4.00 |  |  |
| O=C(O)c1ccc2nc(-c3ccccc3)c(Nc3ccccc3)n2c1 [Compound 8k, 2-Phenyl-3-(phenylamino)imidazo[1,2-a]pyridine-6-carboxylic acid] | 5.62 |  |  |
| O=C(O)c1ccc2nc(-c3ccccc3)c(Nc3ccc([N+](=O)[O-])cc3)n2c1 [Compound 8l, 3-((4-Nitrophenyl)amino)-2-phenylimidazo[1,2-a]pyridine-6-carboxylic acid] | 4.66 |  |  |
| CS(=O)(=O)c1ccc2nc(-c3ccc(-c4ccccc4)cc3)c(Nc3ccc(C(=O)O)cc3)n2c1 [Compound 8r, 4-((2-([1,1′-Biphenyl]-4-yl)-6-(methylsulfonyl)imidazo[1,2-a]pyridin-3-yl)amino)benzoic acid] | 5.00 |  |  |
| O=C(O)c1cccc(Nc2c(-c3ccccc3)nc3cnccn23)c1 [Compound 71] |  | < 3.00 |  |
| Cc1ccc(-c2nc3cnccn3c2Nc2cccc(C(=O)O)c2)cc1 [Compound M8] |  |  | IC50 (TDP1; Table 3, values in brackets (footnote vi), read-out: TDP1 IC50 (μM), separated data from previous experiments): 233 µM |
| Cc1ncsc1-c1ccc(CNC(=O)[C@@H]2C[C@@H](O)CN2C(=O)[C@@H](NC(=O)COCCOCCOCCn2cc(COc3ccc(-c4nc5cc(-c6ccccc6)ccn5c4Nc4ccc(C(=O)O)cc4)cc3)nn2)C(C)(C)C)cc1 [XZ680, 4-((2-(4-((1-((S)-13-((2S,4R)-4-hydroxy-2-((4-(4-methylthiazol-5-yl)benzyl)carbamoyl)pyrrolidine-1-carbonyl)-14,14-dimethyl-11-oxo-3,6,9-trioxa-12-azapentadecyl)-1H-1,2,3-triazol-4-yl)methoxy)phenyl)-7-phenylimidazo[1,2-a]pyridin-3-yl)amino)benzoic acid] |  |  | pIC50 (TDP2; Table 10, PROTACs): < 4.00; pIC50 (TDP1; [3]): < 4.00 |
| Cc1ncsc1-c1ccc(CNC(=O)[C@@H]2C[C@@H](O)CN2C(=O)[C@@H](NC(=O)COCCOCCOCCOCCn2cc(COc3ccc(-c4nc5cc(-c6ccccc6)ccn5c4Nc4ccc(C(=O)O)cc4)cc3)nn2)C(C)(C)C)cc1 [XZ681, 4-((2-(4-((1-((S)-16-((2S,4R)-4-Hydroxy-2-((4-(4-methylthiazol-5-yl)benzyl)carbamoyl)pyrrolidine-1-carbonyl)-17,17-dimethyl-14-oxo-3,6,9,12-tetraoxa-15-azaoctadecyl)-1H-1,2,3-triazol-4-yl)methoxy)phenyl)-7-phenylimidazo[1,2-a]pyridin-3-yl)amino)benzoic acid] |  |  | pIC50 (TDP2; Table 10, PROTACs): < 4.00; pIC50 (TDP1; [3]): < 4.00 |
| Cc1ncsc1-c1ccc(CNC(=O)[C@@H]2C[C@@H](O)CN2C(=O)[C@@H](NC(=O)COCCOCCn2cc(-c3ccn4c(Nc5ccc(C(=O)O)cc5)c(-c5ccccc5)nc4c3)nn2)C(C)(C)C)cc1 [XZ682, 4-((7-(1-(2-(2-(2-(((S)-1-((2S,4R)-4-Hydroxy-2-((4-(4-methylthiazol-5-yl)benzyl)carbamoyl)pyrrolidin-1-yl)-3,3-dimethyl-1-oxobutan-2-yl)amino)-2-oxoethoxy)ethoxy)ethyl)-1H-1,2,3-triazol-4-yl)-2-phenylimidazo[1,2-a]pyridin-3-yl)amino)benzoic acid] |  |  | pIC50 (TDP2; Table 10, PROTACs): < 4.00; pIC50 (TDP1; [3]): < 4.00 |
| Cc1cncc(Oc2ccc(/C=N\OCc3ccc4nc(-c5ccccc5)c(Nc5ccc(C(=O)O)cc5)n4c3)cc2)n1 [XZ713, (Z)-4-((6-((((4-((6-Methylpyrazin-2-yl)oxy)benzylidene)amino)oxy)methyl)-2-phenylimidazo[1,2-a]pyridin-3-yl)amino)benzoic acid] |  |  | pIC50 (TDP2; Table 7, HPLC-purified oxime leads): < 4.00 |

Reference: patent publication US20250011330A1, “Imidazo[1,2- a]pyrazine and Imidazo[1,2- a]pyridine Based Tyrosyl-DNA Phosphodiesterase I (TDP1) Inhibitors” (The USA, As Represented by the Secretary, Department of …, priority 2021, published 2025)
